Values joined by “and” are separate entries in the source; they are usually repeats but may differ in a detail not shown here. Equal entries are not always repeated.

The subject of this test is KRAS patient-derived spheroids with HUVEC/MSC, viability. Put plainly: Anticancer human tumor 941728-121-R-J1-PDC patient-derived lung adenocarcinoma cell line growth inhibition [KRAS2]. As to conditions: for viability, T/C: stronger effect = lower value. In outline: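 KRAS-mutant tumor cells were grown as spheroids with HUVEC endothelial cells and human MSCs as stroma. Targeted agents were tested alone and with KRAS pathway inhibitors. Doses started at or near clinical Cmax, or 10 microM, descending half-log.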

[1] abbreviates: curve of first compound, second compound 0.1 µM.
[2] abbreviates: curve of first compound, second compound 0.316 µM.
[3] abbreviates: curve of first compound, second compound 1 µM.
Setting [4] is: curve of first compound, second compound 3.16 µM.
Setting [5] is: curve of first compound, second compound 10 µM.
Where [6] appears, read: second compound 0.1 µM, first compound 0.0316 µM.
Setting [7] is: second compound 0.1 µM, first compound 0.1 µM.
Setting [8] is: second compound 0.1 µM, first compound 0.316 µM.
Setting [9] is: second compound 0.1 µM, first compound 1 µM.
Setting [10] is: second compound 0.1 µM, first compound 3.16 µM.
[11] abbreviates: second compound 0.1 µM, first compound 10 µM.
The mark [12] stands for this setting: second compound 0.316 µM, first compound 0.0316 µM.
Where [13] appears, read: second compound 0.316 µM, first compound 0.1 µM.
Setting [14] is: second compound 0.316 µM, first compound 0.316 µM.
Where [15] appears, read: second compound 0.316 µM, first compound 1 µM.
[16] abbreviates: second compound 0.316 µM, first compound 3.16 µM.
The mark [17] stands for this setting: second compound 0.316 µM, first compound 10 µM.
[18] abbreviates: second compound 1 µM, first compound 0.0316 µM.
The mark [19] stands for this setting: second compound 1 µM, first compound 0.1 µM.
The mark [20] stands for this setting: second compound 1 µM, first compound 0.316 µM.
The mark [21] stands for this setting: second compound 1 µM, first compound 1 µM.
Setting [22] is: second compound 1 µM, first compound 3.16 µM.
[23] abbreviates: second compound 1 µM, first compound 10 µM.
Where [24] appears, read: second compound 3.16 µM, first compound 0.0316 µM.
The mark [25] stands for this setting: second compound 3.16 µM, first compound 0.1 µM.
Setting [26] is: second compound 3.16 µM, first compound 0.316 µM.
Setting [27] is: second compound 3.16 µM, first compound 1 µM.
Where [28] appears, read: second compound 3.16 µM, first compound 3.16 µM.
The mark [29] stands for this setting: second compound 3.16 µM, first compound 10 µM.
Setting [30] is: second compound 10 µM, first compound 0.0316 µM.
The mark [31] stands for this setting: second compound 10 µM, first compound 0.1 µM.
The mark [32] stands for this setting: second compound 10 µM, first compound 0.316 µM.
Setting [33] is: second compound 10 µM, first compound 1 µM.
Setting [34] is: second compound 10 µM, first compound 3.16 µM.
[35] abbreviates: second compound 10 µM, first compound 10 µM.
Where [36] appears, read: curve of first compound, second compound 0.0316 µM.
The mark [37] stands for this setting: second compound 0.0316 µM, first compound 0.0316 µM.
The mark [38] stands for this setting: second compound 0.0316 µM, first compound 0.1 µM.
Where [39] appears, read: second compound 0.0316 µM, first compound 0.316 µM.
The mark [40] stands for this setting: second compound 0.0316 µM, first compound 1 µM.
The mark [41] stands for this setting: second compound 0.0316 µM, first compound 3.16 µM.
[42] abbreviates: second compound 0.0316 µM, first compound 10 µM.
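Note: spheroids exposed to agents for seven days before readout.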

As for `CC1(C)CCC(CN2CCN(c3ccc(C(=O)NS(=O)(=O)c4ccc(NCC5CCOCC5)c([N+](=O)[O-])c4)c(Oc4cnc5[nH]ccc5c4)c3)CC2)=C(c2ccc(Cl)cc2)C1` + CNCc1ccccc1-c1csc(C(C)Nc2nc(C)nc3cc(OC)c(OC)cc23)c1, the 50% inhibitory concentration (IC50) is, setting by setting: under setting [1], less than 31.6 nM; under setting [2], less than 31.6 nM; under setting [3], less than 31.6 nM; under setting [4], less than 31.6 nM; under setting [5], less than 31.6 nM. Moreover, the viability, T/C under setting [6] is 41.7%; the viability, T/C under setting [7] is 41.8%; the viability, T/C under setting [8] was 41.4%; the viability, T/C under setting [9] is 39.2%; the viability, T/C under setting [10] is 6.99%; the viability, T/C under setting [11] is 4.92%. Besides, the viability, T/C under setting [12] was 39.8%; the viability, T/C under setting [13] is 36%; the viability, T/C under setting [14] was 33.4%; the viability, T/C under setting [15] is 35.1%; the viability, T/C under setting [16] was 7.18%; the viability, T/C under setting [17] was 2.59%. Moreover, the viability, T/C was 27% under setting [18]; 31.7% under setting [19]; 23.2% under setting [20]; 22.6% under setting [21]; 4.9% under setting [22]; 1.48% under setting [23]. Further, the viability, T/C was 0.19% under setting [24]; 0.17% under setting [25]; 0.27% under setting [26]; 0.69% under setting [27]; 0.04% under setting [28]; 0.12% under setting [29]. Moreover, the viability, T/C is 0.11% under setting [30]; 0.11% under setting [31]; 0.09% under setting [32]; 0.33% under setting [33]; 0.1% under setting [34]; 0.12% under setting [35].

Consider `COc1cc2nc(C)nc(NC(C)c3cc(N)cc(C(F)(F)F)c3)c2cc1OC1CCOC1` (stereo not given), for which the IC50 (compound alone, run of 07/19/2021) was < 100 nM and 376 nM and 226 nM.

Regarding `Cn1nccc1Nc1nccc(-c2cc3c(s2)C(C)(C)N(CCN2CCOCC2)C3=O)n1` + C=CC(=O)N1CCN(c2nc(OCC3CCCN3C)nc3c2CCN(c2cccc4cccc(C)c24)C3)CC1CC#N, the IC50 under setting [36] was less than 31.6 nM; the half-inhibitory concentration (IC50) under setting [1] is less than 31.6 nM; the half-maximal inhibitory concentration (IC50) under setting [2] was less than 31.6 nM; the half-maximal inhibitory concentration (IC50) under setting [3] is less than 31.6 nM; the IC50 under setting [4] is less than 31.6 nM. The viability, T/C reads like this: under setting [37], 29.5%; under setting [38], 28.2%; under setting [39], 25.1%; under setting [40], 19.9%; under setting [41], 22.3%; under setting [42], 29.2%. Also, the viability, T/C under setting [6] was 26.6%; the viability, T/C under setting [7] was 24.5%; the viability, T/C under setting [8] is 22.1%; the viability, T/C under setting [9] was 18.8%; the viability, T/C under setting [10] is 20.7%; the viability, T/C under setting [11] is 28.4%. Further, the viability, T/C under setting [12] is 26.1%; the viability, T/C under setting [13] is 24.2%; the viability, T/C under setting [14] was 21.4%; the viability, T/C under setting [15] is 21.9%; the viability, T/C under setting [16] was 19.1%; the viability, T/C under setting [17] was 29.2%. Also, the viability, T/C was 27.1% under setting [18]; 26.8% under setting [19]; 23% under setting [20]; 29.2% under setting [21]; 22.2% under setting [22]; 34.1% under setting [23]. Further, the viability, T/C is, setting by setting: under setting [24], 1.07%; under setting [25], 0.7%; under setting [26], 1.22%; under setting [27], 1.67%; under setting [28], 0.97%; under setting [29], 0.27%.

With `COc1cc(Nc2ncc3c(n2)-c2ccc(Cl)cc2C(c2c(F)cccc2OC)=NC3)ccc1C(=O)O` + C=CC(=O)N1CCN(c2nc(OCC3CCCN3C)nc3c2CCN(c2cccc4cccc(C)c24)C3)CC1CC#N, the IC50 is less than 31.6 nM under setting [36]; less than 31.6 nM under setting [1]; less than 31.6 nM under setting [2]; less than 31.6 nM under setting [3]; less than 31.6 nM under setting [4]. Further, the viability, T/C is 32.1% under setting [37]; 29.5% under setting [38]; 26.1% under setting [39]; 26.3% under setting [40]; 22.9% under setting [41]; 20.3% under setting [42]. Further, the viability, T/C runs as follows: under setting [6], 33.6%; under setting [7], 30.4%; under setting [8], 25.6%; under setting [9], 25.9%; under setting [10], 22.8%; under setting [11], 20.9%. The viability, T/C was 30.4% under setting [12]; 26.1% under setting [13]; 26.8% under setting [14]; 26.1% under setting [15]; 22% under setting [16]; 20.3% under setting [17]. In addition, the viability, T/C was 26.5% under setting [18]; 26.3% under setting [19]; 27.1% under setting [20]; 22.9% under setting [21]; 23% under setting [22]; 16.5% under setting [23]. Also, the viability, T/C under setting [24] was 0.53%; the viability, T/C under setting [25] was 0.41%; the viability, T/C under setting [26] is 0.87%; the viability, T/C under setting [27] is 0.19%; the viability, T/C under setting [28] is 0.26%; the viability, T/C under setting [29] was 0.18%.

In the case of `COc1cc(OC)cc(N(CCNC(C)C)c2ccc3ncc(-c4cnn(C)c4)nc3c2)c1`, the viability, T/C reads like this: (compound 0.1 µM) 104% [middle of 5 runs]; (compound 0.316 µM) 92% [middle of 5 runs].

Consider `Cn1nccc1Nc1nccc(-c2cc3c(s2)C(C)(C)N(CCN2CCOCC2)C3=O)n1` + C=CC(=O)N1CCN(c2nc(=O)n(-c3c(C)ccnc3C(C)C)c3nc(-c4c(O)cccc4F)c(F)cc23)C(C)C1, for which the IC50 was less than 31.6 nM under setting [1]; less than 31.6 nM under setting [2]; less than 31.6 nM under setting [3]; less than 31.6 nM under setting [4]; less than 31.6 nM under setting [5]. Also, the viability, T/C by setting is: under setting [6], 23.9%; under setting [7], 23.4%; under setting [8], 19%; under setting [9], 19.6%; under setting [10], 17.7%; under setting [11], 20.7%. Besides, the viability, T/C is 25.4% under setting [12]; 24.4% under setting [13]; 20.2% under setting [14]; 18.9% under setting [15]; 16.8% under setting [16]; 21.4% under setting [17]. The viability, T/C is 26.1% under setting [18]; 27.4% under setting [19]; 21.1% under setting [20]; 19.9% under setting [21]; 17.8% under setting [22]; 29.4% under setting [23]. Also, the viability, T/C reads like this: under setting [24], 30.6%; under setting [25], 31.4%; under setting [26], 24.9%; under setting [27], 23.6%; under setting [28], 22.9%; under setting [29], 32.3%. Besides, the viability, T/C was 36.4% under setting [30]; 38% under setting [31]; 30.7% under setting [32]; 30% under setting [33]; 34.2% under setting [34]; 57.5% under setting [35].

As to `CN(C)C/C=C/C(=O)Nc1cc2c(Nc3ccc(F)c(Cl)c3)ncnc2cc1O[C@H]1CCOC1`, the viability, T/C (compound 0.000316 µM) is 89.4% [middle of 5 runs]; the viability, T/C (compound 0.001 µM) is 78.7% [middle of 5 runs]; the viability, T/C (compound 0.00316 µM) was 63.7% [middle of 5 runs]; the viability, T/C (compound 0.01 µM) was 61.1% [middle of 5 runs]; the viability, T/C (compound 0.0316 µM) is 57.2% [middle of 5 runs]; the viability, T/C (compound 0.1 µM) was 62.2% [middle of 5 runs]. The half-inhibitory concentration (IC50) (curve of compound) is greater than 100 nM.
